Experiments:
Format in all cases: cell-based
[1] = test system: HSV-1 KOS; assay: Yield reduction assay (virus production in infected Vero cells); conditions: added one hour prior to infection; EB statement for concentrations exceeding 10 μM (FIG. 3)
Protocol: Three days post-infection, Vero cell cultures in microtiter plates were frozen (−80° C.) and thawed (37° C.) three times. Cells were suspended by repeated pipetting and microtiter plates were spun for 10 min at 700×g in a Beckman model TJ-6 tabletop centrifuge. The virus-containing supernates were serially diluted in regular medium and titered on Vero cells. Plaques were counted after staining the monolayers with crystal violet as taught by Grau et al., Invest. Ophthalmol. Vis. Sci. 30:2474 (1989).
Vero cell cultures as prepared in Example 1 were infected with HSV-1 and assayed for virus production as described in Example 1. The antiviral activity of an antiviral peptide according to the present invention EB (SEQ ID NO:1) was compared to the antiviral activity of the current HSV antiviral nucleoside standard, acyclovir. The two peptides were added to the Vero cells one hour prior to infection with HSV.

[2] = test system: Vero cells; assay: Trypan-blue exclusion assay (cytotoxicity)
Protocol: Uninfected Vero cells in serum-free or serum-supplemented DMEM where treated for 1 hour at 37° C. with antiviral peptide SEQ ID NO:1 or control peptide EBX (SEQ ID NO:17), rinsed with PBS, stained for […] at 23° C. with 0.4% trypan-blue in PBS, rinsed again with PBS and air dried.

[3] = test system: hrR3; assay: LacZ+ virus (hrR3) entry assay
Protocol: Confluent Vero cell cultures in 96-well microtiter plates were switched to Hepes-buffered serum-free DMEM, cooled on ice to 4° C. for 30 min, and infected with hrR3 for 1 hour at 4° C. in 40 μl of medium. Unattached virus was removed by rinsing with ice-cold medium. Treatments with antiviral peptide SEQ ID NO:1, referred to as EB, or a control peptide which comprised the RRKK tetra-peptide (SEQ ID NO:16) attached to a scrambled version of the membrane transiting peptide RRKKLAALPLVLAAPLAVLA (SEQ ID NO:17) (referred to as EBX), or mock-treatments with peptide-free medium were carried out in serum-free DMEM as indicated. Virus entry was initiated by transferring cultures to 37° C. To inactivate any remaining extracellular virus, cultures were rinsed with PBS and exposed to low pH citrate buffer (40 mM citric acid, 10 mM KCl, 135 mM NaCl, pH 3.0, according to Highlander et al., J. Virol. 61:3356 (1987), for 1 min at 23° C. The citrate was rinsed off with PBS and cultures were maintained in serum-supplemented DMEM until they were fixed with 0.5% gluteraldehyde in 5×PBS for 30 min at 23° C., stained for β-galactosidase activity for 1 hour or overnight at 23° C. with X-gal (Fisher Biotech; BP 1615-1) in 1×PBS containing […], 1.3 mM K4Fe(CN)6, and 1.3 mM K3Fe(CN)6, and scored for the presence of blue lacZ^+ cells.
In these studies, the hrR3 virus was pre-adsorbed to cells for 1 hour at 4° C. before ice cold 25 μM EB or EBX were added in serum-free DMEM. After an additional 1 hour at 4° C., cultures were shifted to 37° C. to initiate virus entry. At 15 min intervals following the temperature shift, any virus remaining outside the cells was inactivated by washing the cultures with low pH citrate buffer. Cultures were then rinsed and returned to peptide-free serum-supplemented DMEM until they were fixed and stained for f-galactosidase 8 hours after the temperature shift.
This conclusion is strengthened by the finding that the EB-sensitive phase of infection with pre-adsorbed virus clearly precedes expression of lacZ genes in hrR3 infected cells (FIG. 7A). Again, hrR3 was pre-adsorbed to cells for 1 hour at 4° C., unattached virus was rinsed off, and cells were kept for an additional hour at 4° C. Cultures were then transferred to 23° C. for 30 min before they were switched to 37° C. The more gradual change to 37° C. allowed cell layers to remain intact through subsequent frequent medium changes. Immediately following viral adsorption, cells were treated with 50 μM EB for 1 hour periods at consecutive 1 hour intervals. Between 1 and 4 hours post-infection, virus entry was inhibited by 70-80%. […] Parallel cultures were immediately fixed after mock-treatments and stained with X-gal. In these cultures, blue (lacZ^+) cells first appeared 7 hours post-infection and their number increased nearly linearly for the next 3 hours (FIG. 7A, (∘)). By 7 hours post-infection, EB ceased to be inhibitory.

[4] = test system: hrR3; assay: Virucidal assay; conditions: overnight dialysis against serum-containing medium
Protocol: […] The treated virus was diluted 200-fold with serum-supplemented DMEM and assayed for infectivity approximately 1 hour later in microtiter wells seeded with Vero cells (3.5×10^4 cells/well) 1 d earlier. Forty or 100 microliter volumes of diluted virus were adsorbed for 1 or 2 h at 37° C. and lacZ^+ cells were scored 8 hours later. In some experiments, aliquots of diluted virus were first dialyzed (Spectra/Por; MWCO 12-14,000) overnight at 4° C. against a 60-fold excess volume of Hepes-buffered serum-supplemented DMEM or forced by syringe through 0.22 μm membranes (Millex-GV; Millipore) before the remaining infectious virus was assayed.

## H-RRKKAAVALLPAVLLALLAP-OH [EB]
[1]
  antiviral activity, EB compared with acyclovir: greatest antiviral activity
[2]
  cytotoxic concentrations relative to antiviral concentrations: 100 fold
[3]; 50 μM EB for 1 hour periods, between 1 and 4 hours post-infection (FIG. 7A)
  inhibition of virus entry: 70-80%
[3]; peptide added immediately after each citrate treatment (FIG. 6B)
  effect on development of lacZ+ cells: no longer had any effect
[4]
  reversibility of virion inactivation: irreversibly inactivated
